Results reported in the OligoGym collection.
Where “and” joins values, the source holds several entries; their conditions need not be identical. Identical values can stand only once. After the bases stand the sugars from the 5' end (letter, count) and the backbone: PS all phosphorothioate, else s phosphorothioate and o phosphodiester by linkage. Methylation of C is not given here. e = 2'-O-(2-methoxyethyl) (MOE); k = constrained ethyl (cEt); d = 2'-deoxy (DNA); m = 2'-O-methyl

Target: HSD17B13
Settings: ASO, HepaRG

Sequence | target mRNA inhibition (1 µM) | also measured
GTTGATATTTCCATCT (sugars k3 d10 k3, PS) | 55% | 
GTTGGAAGATGTATAC (sugars k3 d10 k3, PS) | 53% | 
GTTTAGATTGCATAAG (sugars k3 d10 k3, PS) | 46% | 
GTTTATCATGTGCCAC (sugars k3 d10 k3, PS) | 83% | target mRNA inhibition (0.02 µM): 0%; target mRNA inhibition (0.078 µM): 21%; target mRNA inhibition (0.313 µM): 44%; target mRNA inhibition (1.25 µM): 76%; target mRNA inhibition (5 µM): 94%
GTTTATGTAAGCACAG (sugars k3 d10 k3, PS) | 67% | 
GTTTCAAAAAGGCCCA (sugars k3 d10 k3, PS) | 39% | 
GTTTCTTATGTAATAG (sugars k3 d1 m1 d8 k3, PS) | 25% | 
GTTTTTAAGAGGCATG (sugars k3 d9 k3 e1, PS) | 78% | target mRNA inhibition (0.02 µM): 12%; target mRNA inhibition (0.078 µM): 17%; target mRNA inhibition (0.313 µM): 41%; target mRNA inhibition (1.25 µM): 64%; target mRNA inhibition (5 µM): 82%
GTTTTTATTGGGCCCA (sugars k3 d10 k3, PS) | 67% | 
TAAAATAGGGTGCAGT (sugars k3 d10 k3, PS) | 58% | 
TAAAATATGTCCAGGT (sugars k3 d10 k3, PS) | 75% | 
TAAACATCTCTGGGAC (sugars kkdddddddddkekek, PS) | 39% | 
TAAACTGTATGCCTCT (sugars k3 d10 k3, PS) | 49% | 
TAAATCCAAATCACTC (sugars k3 d10 k3, PS) | 39% | 
TAACCATAGGACATGG (sugars k3 d10 k3, PS) | 70% | 
TAACGGTGATCAAATG (sugars k3 d10 k3, PS) | 17% | 
TAACTAACCTGACACA (sugars k3 d10 k3, PS) | 57% | 
TAACTTCATAGTGGAC (sugars k3 d10 k3, PS) | 76% | 
TAAGAGAAGGTGCACA (sugars k3 d10 k3, PS) | 12% | 
TAAGAGATGAGTAGGC (sugars k3 d10 k3, PS) | 46% | 
TAAGAGGCATGAAAGG (sugars k3 d9 k3 e1, PS) | 36% | 
TAAGAGGCATGAAAGG (sugars k3 d10 k3, PS) | 52% | 
TAAGATACCCAGGTTG (sugars k3 d10 k3, PS) | 39% | 

Sequence | target mRNA inhibition (1 µM) | also measured
TAAGCTGAGAGTTCTA (sugars k3 d10 k3, PS) | 64% | 
TAAGGTAAACTAAAGT (sugars k3 d10 k3, PS) | 9% | 
TAAGTAGATGGTAAGT (sugars k3 d10 k3, PS) | 74% | target mRNA inhibition (0.02 µM): 5%; target mRNA inhibition (0.078 µM): 10%; target mRNA inhibition (0.313 µM): 34%; target mRNA inhibition (1.25 µM): 72%; target mRNA inhibition (5 µM): 85%
TAAGTTATTATCCCCA (sugars k3 d10 k3, PS) | 70% | 
TAATACGACTTCCTTC (sugars k3 d10 k3, PS) | 32% | 
TAATAGCCAGTACAGT (sugars k3 d9 k3 e1, PS) | 64% | 
TAATCTTGAGGCAGGA (sugars k3 d10 k3, PS) | 17% | 
TACACCACACTAATGA (sugars k3 d10 k3, PS) | 26% | 
TACAGACTAAGGGACC (sugars k3 d10 k3, PS) | 68% | 
TACAGATTGGAATGCT (sugars kkdddddddddkekek, PS) | 35% | 
TACAGTTCCTTTTCCT (sugars k3 d10 k3, PS) | 68% | 
TACATCACCCACTTCT (sugars k3 d10 k3, PS) | 37% | 
TACATTACAGCCTTAG (sugars k3 d10 k3, PS) | 75% | target mRNA inhibition (0.02 µM): 0%; target mRNA inhibition (0.078 µM): 2%; target mRNA inhibition (0.313 µM): 15%; target mRNA inhibition (1.25 µM): 71%; target mRNA inhibition (5 µM): 85%
TACATTCTTCAGGTGT (sugars k3 d10 k3, PS) | 61% | 
TACCAAACTTGCCCAT (sugars k3 d10 k3, PS) | 33% | 
TACCAATATGGGATGA (sugars k3 d10 k3, PS) | 1% | 
TACCUCTAAGTTAGCC (sugars k3 d1 m1 d8 k3, PS) | 13% | 
TACGACAGGTCATCTT (sugars k3 d10 k3, PS) | 58% | 
TACGACTTCATCTGTC (sugars k3 d10 k3, PS) | 29% | 
TACGACTTCCTTCTAA (sugars k3 d10 k3, PS) | 67% | 
TACGCATGCGCAGTGA (sugars k3 d10 k3, PS) | 60% | 
TACTAATGTCCAAGGA (sugars k3 d10 k3, PS) | 77% | target mRNA inhibition (0.02 µM): 4%; target mRNA inhibition (0.078 µM): 0%; target mRNA inhibition (0.313 µM): 38%; target mRNA inhibition (1.25 µM): 64%; target mRNA inhibition (5 µM): 75%
TACTCTAGGAGATATA (sugars k3 d10 k3, PS) | 33% | 

Sequence | target mRNA inhibition (1 µM) | also measured
TACTTACCAATATGGG (sugars k3 d10 k3, PS) | 13% | 
TACTTTTAGGGAGGTA (sugars k3 d10 k3, PS) | 28% | 
TACTUGAACAGTCTTA (sugars k3 d1 m1 d8 k3, PS) | 38% | 
TAGAAACTGCTCCTCA (sugars k3 d10 k3, PS) | 32% | 
TAGAATAGTCTTCAGC (sugars k3 d1 m1 d8 k3, PS) | 30% | 
TAGAGTCGGTCACCTT (sugars k3 d1 m1 d8 k3, PS) | 55% | 
TAGAGTTGCACCGTTT (sugars k3 d10 k3, PS) | 58% | 
TAGCAGCTAAAATCCA (sugars k3 d10 k3, PS) | 66% | 
TAGCCAGTACAGTTCC (sugars k3 d9 k3 e1, PS) | 58% | 
TAGCTGTGCACTCATT (sugars k3 d9 k3 e1, PS) | 66% | target mRNA inhibition (0.02 µM): 3%; target mRNA inhibition (0.078 µM): 0%; target mRNA inhibition (0.313 µM): 8%; target mRNA inhibition (1.25 µM): 57%; target mRNA inhibition (5 µM): 76%
TAGCTGTGCACTCATT (sugars k3 d10 k3, PS) | 40% | 
TAGGCTAAAATGGTCA (sugars k3 d10 k3, PS) | 59% | 
TAGGCTTAGTGTAGAA (sugars k3 d10 k3, PS) | 38% | 
TAGTAATCACAAGTAA (sugars k3 d1 m1 d8 k3, PS) | 38% | 
TAGTAATCACAAGTAA (sugars kkdddddddddkekek, PS) | 55% | 
TAGTATAGTTATCTTC (sugars k3 d10 k3, PS) | 28% | 
TAGTCTTCAGCAAAGT (sugars k3 d9 k3 e1, PS) | 36% | 
TAGTCTTCAGCAAAGT (sugars k3 d10 k3, PS) | 49% | 
TAGTCTTGATGTAGTG (sugars k3 d9 k3 e1, PS) | 61% | 
TAGTGCCAAACCAATG (sugars k3 d10 k3, PS) | 46% and 61% | 
TAGTGCCAAACCAATG (sugars kkdddddddddkekek, PS) | 66% | target mRNA inhibition (0.02 µM): 11%; target mRNA inhibition (0.078 µM): 18%; target mRNA inhibition (0.313 µM): 27%; target mRNA inhibition (1.25 µM): 53%; target mRNA inhibition (5 µM): 57%
TAGTGGACTTCATTAG (sugars k3 d9 k3 e1, PS) | 22% | 
TAGTGTAAGCTGAGAG (sugars k3 d9 k3 e1, PS) | 82% | target mRNA inhibition (0.02 µM): 6%; target mRNA inhibition (0.078 µM): 13%; target mRNA inhibition (0.313 µM): 52%; target mRNA inhibition (1.25 µM): 69%; target mRNA inhibition (5 µM): 79%

Sequence | target mRNA inhibition (1 µM) | also measured
TAGTGTAAGCTGAGAG (sugars k3 d10 k3, PS) | 75% | target mRNA inhibition (0.02 µM): 0%; target mRNA inhibition (0.078 µM): 0%; target mRNA inhibition (0.313 µM): 2%; target mRNA inhibition (1.25 µM): 48%; target mRNA inhibition (5 µM): 83%
TAGTTGGTAGCTTGCT (sugars k3 d10 k3, PS) | 66% | target mRNA inhibition (0.02 µM): 7%; target mRNA inhibition (0.078 µM): 31%; target mRNA inhibition (0.313 µM): 46%; target mRNA inhibition (1.25 µM): 74%; target mRNA inhibition (5 µM): 94%
TAGTTTGGTGGGCATG (sugars k3 d10 k3, PS) | 28% | 
TATAACATGGCTGGCA (sugars k3 d10 k3, PS) | 33% | 
TATAACTGAGCTAGAC (sugars k3 d10 k3, PS) | 53% | 
TATACAGACTAAGGGA (sugars k3 d10 k3, PS) | 24% | 
TATACATCAACTCCTC (sugars k3 d10 k3, PS) | 39% | 
TATACCTGTTGCCTAG (sugars k3 d10 k3, PS) | 11% | 
TATACTGAAGGCTGTG (sugars k3 d10 k3, PS) | 44% | 
TATACTTTTCCGTCTC (sugars k3 d10 k3, PS) | 71% | target mRNA inhibition (0.02 µM): 0%; target mRNA inhibition (0.078 µM): 22%; target mRNA inhibition (0.313 µM): 44%; target mRNA inhibition (1.25 µM): 79%; target mRNA inhibition (5 µM): 83%
TATAGACTGGGTAGGA (sugars kkdddddddddkekek, PS) | 38% | 
TATATACATCAACTCC (sugars k3 d10 k3, PS) | 61% | 
TATATACCTGTTGCCT (sugars k3 d10 k3, PS) | 55% | 
TATGAAGTTAGTATAG (sugars k3 d1 m1 d8 k3, PS) | 27% | 
TATGAAGTTAGTATAG (sugars k3 d10 k3, PS) | 30% | 
TATGTAATAGCCAGTA (sugars k3 d9 k3 e1, PS) | 82% | target mRNA inhibition (0.02 µM): 23%; target mRNA inhibition (0.078 µM): 28%; target mRNA inhibition (0.313 µM): 53%; target mRNA inhibition (1.25 µM): 78%; target mRNA inhibition (5 µM): 93%
TATGTAATAGCCAGTA (sugars k3 d10 k3, PS) | 50% | 
TATGTGATTGAGTTCT (sugars kkdddddddddkekek, PS) | 23% | 
TATTATGAGGATCTGG (sugars k3 d10 k3, PS) | 44% | 
TATTATGTGATTGAGT (sugars k3 d9 k3 e1, PS) | 51% | 
